In patent publication US8802660B2, “De novo synthesis of glucocorticoids in the epidermis and its uses and applications” (New York University, priority 2007, dated 2014):

Assays:
[1] = system: skin explant cultures; experiment: ELISA assay for cortisol released from skin explant cultures; format: cell-based, human; conditions: for effect on cortisol production (in words): 24 hours, metyrapone 200 μM; for induction of cortisol levels / cortisol production: after 24 hours, ACTH 0.1 μM, progesterone 1 μM
Experimental: (§1) Cells were cultured to 80% of confluency as described above in Example 1(C). 200 μl of the medium was collected at 0, 6, 12, 24, and 48 hours after the switch to basal medium, and cortisol production was measured using ELISA kit (R & D Systems, Minneapolis, Minn.) following commercial protocol.
(§2) To further confirm that keratinocytes produce glucocorticoids de novo, medium was collected from cultured cells grown in the minimal medium in the absence of any alternative GC source as described in Example 1(C). Cortisol production was measured after 0, 6, 12, 24, and 48 hours using the ELISA assay described in Example 1(E). To confirm the production in tissue, the production of cortisol released from skin in explant cultures was measured. As shown in FIG. 3(B), 11.1 ng/ml of cortisol was released by the skin.
(§3) A further experiment was performed where prior to measurement both the keratinocytes and the skin explant cultures were stimulated with 0.1 μM of ACTH. Cortisol production was measured after 24 hours using the ELISA assay described in Example 1(E). […] The addition of 1 μM of progesterone as a substrate for glucocorticoid synthesis lead to a 2.5 fold induction in cortisol production in both cells and skin (FIG. 7B). The addition of 200 μM metyrapone (Sigma) decreased endogenous levels of cortisol production (FIG. 7B).
(§4) To determine if injury-related molecules affect cortisol synthesis, IL-1 or IGF-1 was added to keratinocytes cultured as described in Example 1(C) or skin explants. IL-1 is a primary injury-response pro-inflammatory signal whereas IGF-1 is known to modulate glucocorticoid metabolism (Rappolee et al. (1988) Science 241:708-12). ACTH was used as a positive control. Cortisol levels were measured 24 hours post-treatment using the ELISA assay described in Example 1(E). […] In contract, IGF-1 inhibited cortisol production in both treated cells and tissue (FIG. 8(A)).

[2] = system: acute wounds in human skin specimens; experiment: Epithelialization in acute wounding model of human skin (histology); conditions: topical; air-liquid interface for 6 days; metyrapone 200 μM
Source text: Human skin specimens were obtained from discarded tissue in reduction mammoplasty following approved Hospital for Special Surgery protocol (#25121). Preparation of tissue with acute wounds was done as previously described (Tomic-Canic et al. (2007) Wound Repair Regen. 15(1):71-9); Stojadinovic et al. (2005) Am. J. Pathol. 167(1):59-69). The adipose tissue was removed, and circular templates of skin were generated using a 6 mm biopsy punch. A 3 mm biopsy punch was used to create an acute wound. The skin specimens were maintained at the air-liquid interface with DMEM (BioWhittaker, Walkersville, Md.) with antibiotics-antimycotics, and fetal bovine serum (FBS) (Gemini Bio-Products, Woodland, Calif.) for 0, 4, 48, and 96 hours in the presence or absence of 1 μM dexamethasone (Sigma, St. Louis, Mo.). Acute wounds were fixed in 4% paraformaldehyde (Sigma) at room temperature overnight, dehydrated with ethanol, cleared in chloroform, and embedded in paraffin.
The effect of glucocorticoids on epithelialization was tested using the acute wounding model described in Example 1(A). The wounded skin was maintained at the air-liquid interface for 6 days. Wounds were maintained in the presence or absence of clobetasol propionate (routinely used by dermatologists in the treatment of inflammatory skin disorders). Healing rates was determined by histology. […]

[3] = system: c-myc; experiment: Northern Blot and Western Blot of c-myc in keratinocytes and tissue; format: cell-based, human
Experimental: Keratinocytes were grown to 80% confluency, switched to the basal media for 24 hours, and incubated with 1 mM dexamethasone (Sigma) for 24 and 48 hours. Cells were harvested by trypsinization and cytoplasmic and nuclear fractions were obtained using Nuclear Extract Kit (Active Motif, Carlsbad, Calif.) following commercial protocol. 15 μg of each fraction was separated on a 10% SDS-PAGE gel. The proteins were then transferred to a nitrocellulose membrane (Protran®, Bioscience, Dassel, Germany) using the semi-dry transfer system (BioRad, Hercules, Calif.). Ponceau S was used to check the efficiency of the transfer. […] The membrane was washed 3 times for 5 minutes in TTBS and then incubated at 4° C. overnight with GR antibody (1:500) (Affinity Bioreagents) followed with horseradish […] (HRP) conjugated to anti-rabbit secondary antibody (1:1000) (Santa Cruz Biotech, Santa Cruz, Calif.). Immune complexes were visualized using Super Signal West Pico Chemiluminescent substrate (Pierce, Rockford, Ill.). Immunoblot was exposed on x-ray film (HyBlot CL, Denville, N.J.) according to manufacturer's instruction.
It was also found by Northern Blot analysis using acute wound tissue that c-myc was induced at 96 hours post-wounding (FIG. 11(B)).
Using Western Blot analysis, it was shown that protein levels of c-myc were induced by exogenous glucocorticoid and blocked by metyrapone (FIG. 11(C)).

[4] = system: primary human keratinocytes; experiment: ELISA assay for cortisol in medium of cultured keratinocytes; format: cell-based; conditions: for effect on cortisol production (in words) / induction of cortisol levels / cortisol production: keratinocytes; for effect on cortisol production (in words): 24 hours, metyrapone 200 μM; for induction of cortisol levels / cortisol production: after 24 hours, ACTH 0.1 μM, progesterone 1 μM
Experimental: Normal human epidermal keratinocytes were initiated using 3T3 feeder layers as previously described (Randolph and Simon (1993) J. Biol. Chem. 268(13):9198-9205) and frozen in liquid nitrogen until use. Once thawed, the keratinocytes were grown without feeder cells in defined serum-free keratinocyte medium supplemented with epidermal growth factor and bovine pituitary extract (keratinocyte-SFM, GIBCO, Carlsbad, Calif.). Cells were expanded through two 1:4 passages before they were grown to 80% confluency. Cells were washed several times with 1×PBS before they were incubated with basal keratinocyte medium (GIBCO) custom made without hydrocortisone and thyroid hormone.
as §1, §2
as §3, with “Cortisol” for “A further experiment was performed where prior to measurement both the keratinocytes and the skin explant cultures were stimulated with 0.1 μM of ACTH. Cortisol”
as §4

[5] = system: glucocorticoid receptor; experiment: Immunohistochemistry of phosphorylated (hormone-activated) GR in acute wound sections; design: species or system human; conditions: treated acute wound samples
Source text: Human skin specimens were obtained from discarded tissue in reduction mammoplasty following approved Hospital for Special Surgery protocol (#25121). […] The adipose tissue was removed, and circular templates of skin were generated using a 6 mm biopsy punch. A 3 mm biopsy punch was used to create an acute wound. […] Acute wounds were fixed in 4% paraformaldehyde (Sigma) at room temperature overnight, dehydrated with ethanol, cleared in chloroform, and embedded in paraffin.
Six μm tissue sections were serially cut on a microtome (HM 315, Carl Zeiss, New York, N.Y.) and mounted on slides. Sections were dewaxed in xylene, re-hydrated and washed with 1× phosphate buffered saline (PBS). For antigen retrieval, paraffin sections were heated in a 95° C. water bath in Target Retrieval Solution (DAKO Corporation, Carpinteria, Calif.). Histological slides were treated with 3% H2O2/30% MeOH for 30 minutes, rinsed with water, and blocked with normal rabbit serum for 30 minutes (Vectastatin Kit Elite ABC, Vectorlabs, Burlingame, Calif.). […] Sections were analyzed using a Carl Zeiss microscope. […]

[6] = system: β-catenin; experiment: Immunohistochemistry of phosphorylated β-catenin in chronic wound biopsies (diabetic foot ulcers); design: species or system human; conditions: topically applied to chronic wound biopsies
Experimental: Chronic wound tissue was obtained from discarded tissue of biopsies of consenting patients having surgical debridement using approved Columbia University protocol.
Slides were counterstained with hematoxylin. […] Sections were analyzed using a Carl Zeiss microscope. Digital images were taken with Adobe TWAIN—32 program.
It has been previously reported that β-catenin and c-myc participate in inhibition of wound healing and contribute to the impairment of healing in chronic wounds. […] To test if endogenous glucocorticoid participates in β-catenin activation in patients with chronic wounds, metyrapone was topically applied to chronic wound biopsies from patients with diabetic foot ulcers (as described in Example 1(A)). The effects were evaluated by measuring phosphorylation and intracellular translocation of β-catenin by immunohistochemistry as described in Example 1(B), except using an antibody targeting phosphorylated (activated) form of β-catenin (Cell Signaling Technology, Danvers, Mass.). […] As also shown in FIG. 12, this effect can be reversed by the addition of an exogenous glucocorticoid.

[7] = system: CYP11B1; experiment: RT-PCR of CYP11B1 expression in treated keratinocytes; format: cell-based, human
Experimental: RNA isolation and purification was performed using Triazol (Invitrogen, Carlsbad, Calif.) extraction and subsequent Qiagen RNeasy Kit column purification (Qiagen, Alameda, Calif.). Reverse transcription and amplification were performed using primers CYP11B1 fw GCTAGACATAGGGGCTCC (SEQ ID no. 1), CYP11B1-rev AGGTGTTTCAGCACATGG (SEQ ID no. 2)and Access RT-PCR Kit (Promega, Madison, Wis.) as follows: (a) reverse transcription—1 cycle at 48° C. for 45 minutes; (b) AMV RT inactivation and RNA/cDNA primer denaturation—1 cycle at 94° C. for 2 minutes; (c) second strand cDNA synthesis and PCR amplification—35 cycles: denaturation for 30 seconds, annealing at 51° C. for 1 minute and extension at 68° C. for 2 minutes; and (d) final extension—1 cycle at 68° C. for 7 minutes. Samples were separated by electrophoresis on 2% agarose gels containing 0.5 μg/ml of ethidium bromide and visualized under UV light.
To elucidate the possible mechanism of regulation involved in these observations, the expression of CYP11B1 was measured using RT-PCR as described in Example 1(G). The expression levels of CYP11B1 corresponded to the cortisol production. IL-1 induced the expression of CYP11B1 similar to ACTH, whereas IGF-1 inhibited its expression (FIG. 8(B)).

Compound	epithelialization / wound closure [2]	effect on cortisol production (in words) [4]	effect on cortisol production (in words) ([1]; skin explants)	induction of cortisol levels / cortisol production [4]	induction of cortisol levels / cortisol production ([1]; skin explants)	expression of CYP11B1 (RT-PCR) [7]	also measured
[Ca+2].[Cl-].[Cl-] [CaCl2]	–	–	–	–	–	–	effect on cortisol production in the skin ([1]; increased CaCl2 levels): decrease
CCC(=O)O[C@]1(C(=O)CCl)[C@@H](C)C[C@H]2[C@@H]3CCC4=CC(=O)C=C[C@]4(C)[C@@]3(F)[C@@H](O)C[C@@]21C [clobetasol propionate]	completely inhibited epithelialization	–	–	–	–	–	–
CC(C)(C(=O)c1cccnc1)c1cccnc1 [metyrapone]	complete wound closure	decreased	decreased	–	–	–	protein levels of c-myc (Western Blot) [3]: blocked; hormone-activated GR in the nucleus (anti-phospho-Ser211 staining) [5]: absence of GR in the nucleus; β-catenin phosphorylation and nuclearization [6]: abolished
CC(=O)[C@H]1CC[C@H]2[C@@H]3CCC4=CC(=O)CC[C@]4(C)[C@H]3CC[C@]12C [progesterone]	–	–	–	2.5 fold	2.5 fold	–	–
IGF-1: known to modulate glucocorticoid metabolism	–	inhibited	inhibited	–	–	inhibited	–
adrenocorticotropic hormone (SYSMEHFRWGKPVGKKRRPVKVYPNGAEDESAEAFPLEF; Corticotropin; UniProt P01189 138-176, looked up) [ACTH, stimulates synthesis of glucocorticoid]	–	–	–	2.7 fold	2.0 fold	induced	induction of cortisol levels ([4]; keratinocytes in culture, 0.1mM of ACTH): 2.7 fold; induction of cortisol levels ([1]; skin explants, 0.1 μM of ACTH): 2.01 fold
